Source: patent publication US11246929B2, “Combination of a protein kinase inhibitor and an additional chemotherapeutic agent” (Merck Patent GmbH, priority 2016, dated 2022)

Columns and labels:
JIMT1 = assay: Single agent activity, panel of 81 cancer cell lines plus PBMC; assay type: cell-based; conditions: Homo sapiens, JIMT-1
colon cancer cell lines = assay: cells; conditions: read-out: Median etoposide concentration needed to reach GI50
Experimental: Single agent as well as combination treatment growth inhibition effects were measured by ONCOLEAD.
Relative area above the dose-response curve (relAOC or AOC) were obtained as the area above the dose-response curve in the dose range between 1E-3M and 1E-10M.

1587MG = assay: SRB growth inhibition, 93 cell lines panel; conditions: read-out: GI50 of etoposide (±Compound 1)
Experimental: (§7) Cell growth and treatment were performed in 96-well microtitre plates CELLSTAR® (Greiner Bio-One, Germany). Cells harvested from exponential phase cultures by trypsinization or by splitting (in the case of cells growing in suspension) were plated in 90 μl of media at optimal seeding densities. The optimal seeding density for each cell line was determined to ensure exponential growth for the duration of the experiment. All cells growing without anticancer agents were sub-confluent by the end of the treatment, as determined by visual inspection. […] The cells were allowed to grow at 37° C. for 72 (or 120) hours. […] Cells were fixed to the surface by addition of 10% TCA (for adherent growing cells) or 50% TCA (for semi-adherent growing cell or cells growing in suspension). After an hour of incubation at 4° C. plates were washed twice with 200 μl of deionized water and dried. Cells were then stained with 100 μl of 0.04% w/v SRB. The plates were incubated at room temperature for at least 30 min and washed six times with 1% acetic acid to remove unbound stain. […] Using these measurements, cellular responses can be calculated for incomplete inhibition of cell growth (GI), complete inhibition of cell growth (TGI) and net loss of cells (LC) due to compound activity. […] TGI was calculated from Ti=Tz.

SKNAS = assay: SRB growth inhibition, 93 cell lines panel; conditions: Homo sapiens, SK-N-AS, read-out: GI50 of etoposide (±Compound 1)
Experimental: as §7

HELA = assay: cells; conditions: Homo sapiens, read-out: GI50 of etoposide (±Compound 1)
Experimental: Cell growth and treatment were performed in 96-well microtitre plates CELLSTAR® (Greiner Bio-One, Germany). Cells harvested from exponential phase cultures by trypsinization or by splitting (in the case of cells growing in suspension) were plated in 90 μl of media at optimal seeding densities. The optimal seeding density for each cell line was determined to ensure exponential growth for the duration of the experiment. All cells growing without anticancer agents were sub-confluent by the end of the treatment, as determined by visual inspection.
90 μl of cells, after a 48-hour pre-growth period, were treated by mixing with 10 μl of the compound-containing media (resulting in a final DMSO concentration of 0.1%). The cells were allowed to grow at 37° C. for 72 (or 120) hours.
Cells were fixed to the surface by addition of 10% TCA (for adherent growing cells) or 50% TCA (for semi-adherent growing cell or cells growing in suspension). After an hour of incubation at 4° C. plates were washed twice with 200 μl of deionized water and dried. Cells were then stained with 100 μl of 0.04% w/v SRB. […]
Using these measurements, cellular responses can be calculated for incomplete inhibition of cell growth (GI), complete inhibition of cell growth (TGI) and net loss of cells (LC) due to compound activity. […] TGI was calculated from Ti=Tz. […] It was calculated as 100×[(Ti−Tz)/Tz]=−50.

FaDu = assay: AlamarBlue viability assay; assay type: cell-based, human
Experimental: (§1) Compound 1 in combination with etoposide or cisplatin was tested in the following cancer cell lines for inhibition of tumor cells: human lung carcinoma (NCI-H460), human glioblastoma (MO59K and MO59J), and human squamous cell carcinoma pharynx (FaDu). Details of the assay protocol and material utilized are set forth below.
(§2) Cells were plated in a volume of 180 μl/well in 96-well plates: (FaDu: 1000 cells/well (168 h); NCI-H460 3000 cells/well (72 h) and 1000 cells/well (168 h); MO59J: 5000 cells/well (72 h) and 2000 cells/well (168 h); MO59K: 2000c/well (72 h) and 1000 cells/well (168 h)) and incubated at 37° C. and relevant C02 for 24 h hours. 20 μl per well of medium including serial dilutions of Compound 1 and/or Etoposide or Cisplatin were added to the culture plates and the incubation was continued further for 3 days (72 h) or 7 days (168 h) at 37° C. and relevant CO2. Compound 1 was pre-incubated for 30 min before Etoposide or Cisplatin were added.
(§3) Cells were plated in 200 μl volume per well (FaDu: 1000 cells/well (168 h); NCI-H460 3000 cells/well (72 h) and 1000 cells/well (168 h); MO59J: 5000 cells/well (72 h) and 2000 cells/well (168 h); MO59K: 2000c/well (72 h) and 1000 cells/well (168 h)). After 24 h incubation at 37° C. Compound 1, Etoposide or Cisplatin were dispensed by using the Digital HP Dispenser D300 (and the included dispensing software). Plates were further incubated for 3 days (72 h) or 7 days (168 h) at 37° C. and relevant CO2.
(§4) At the end of the compound incubation period 20 μl AlamarBlue reagent was added per well and the 96-well plates were incubated further up to seven hours. Absorption was determined at 540 nm by using Tecan Reader Connect and Magelan 7.
(§5) 0% effect=cells treated with DMSO; −100% effect=no cells

NCI-H460 = assay: AlamarBlue viability assay; assay type: cell-based, human
Experimental: as §1, §2, §3, §4, §5

MO59J (DNA-PK deficient) = assay: AlamarBlue viability assay; assay type: cell-based, human; conditions: compound incubation for 168 h
Experimental: as §1, §2, §3, §4, §5

[1] = tested on: human NCI-H526 SCLC xenograft; assay: NCI-H526 SCLC xenograft, combination with etoposide/cisplatin; assay type: in vivo
Experimental: The mice were acclimatized to the housing conditions for 1 week. […] Bedding consisted of aspen chips (E. Becker, Castrop-Rauxel). Room temperature was 24+/−2° C. and relative humidity was 50+/−10% at 15 air changes per hour. Drinking water (provided ad libitum) was supplemented with 1 mg/mL Chlorine and was adjusted to a pH of 6.5 with HCl. Sterile high protein maintenance diet for immunodeficient mice (Ssniff, Soest, product No V1244-72, γ-sterilized) was also provided ad libitum. The light cycle was set at 12 hrs light and 12 hrs darkness. Details of the study protocol are as follows:
Then the cell suspension (100 μL/animal) was subcutaneously inoculated in the right flank of immunodeficient CD1 mice.
Tumor measurements and calculations: When the tumors reached a volume of 96-214 mm^3 the animals were randomized into 7 treatment groups with 10 animals each. Tumor length (L) and width (W) were measured twice weekly by calipers. The tumor volume was calculated using the formula L×W2/2. Data were collected in Study Advantage™ (data collection system).
Treatment: dosing and scheduling per above.
T/C-value: The ability of a treatment to inhibit tumor growth was assessed at the end of each study by calculating the % T/C value according to following formulas: % T/C delta>0 calculation (mean): [(end tumor volume treatment−start tumor volume treatment)/(end tumor volume control−start tumor volume control)]×100] % T/C delta≤0 (regression) calculation (mean): [(end tumor volume treatment−start tumor volume treatment)/start tumor volume treatment]×100
Toxicity: The bodyweight change in % denotes the difference between the weight at start of treatment and the end of treatment. Changes of bodyweight during the treatment course are particularly important as it is considered a measure for presence or absence of treatment-related toxicity. A dosage producing a 20% body weight change (mean of group) or ≥10% drug deaths was considered an excessively toxic dosage. Animal body weights included the tumor weights.
Animals were treated with three 1-week cycles of chemotherapy consisting of Cisplatin (3 mg/kg once weekly) and Etoposide (4 mg/kg for three consecutive days per week).

DNA-PK (p-Ser2056) [2] = target: T1, DNA-PK (p-Ser2056) (Homo sapiens, UniProt P78527); assay: IR-induced DNA-PK phosphorylation in tumor tissue, MSD assay, WM164 xenograft; assay type: in vivo
T1 construct: from tissue; host or cells: human tumor xenografts (FaDu, HCT116, WM164) grown in mice
Excerpt: (§6) Following the induction of DSB by radiation therapy or other DNA damaging agents, the catalytic subunit of DNA-PK (DNA-PKc) is autophosphorylated at several serine and threonine residues. Ser2056 is one of the most prominent and best studied autophosphorylation sites. Because Ser2056 phosphorylation (p-Ser2056) correlated well with DNA-PK activation state it was chosen as the pharmacodynamics (PD) biomarker. Two different assay formats were established to measure p-Ser2056 in tumor tissue: ELISA and MSD format. In order to detect sequence reliable signal, IR was used at 50 Gy for the ELISA assay and 10 Gy for the more sensitive MSD assay.

DNA-PK (p-Ser2056) [3] = target: T1, DNA-PK (p-Ser2056); assay: IR-induced DNA-PK phosphorylation in tumor tissue, ELISA, FaDu xenograft; assay type: in vivo; conditions: IR 50 Gy
Excerpt: as §6

COc1cc([C@@H]2c3cc4c(cc3[C@@H](O[C@@H]3O[C@@H]5CO[C@@H](C)O[C@H]5[C@H](O)[C@H]3O)[C@H]3COC(=O)[C@H]23)OCO4)cc(OC)c1O [Etoposide]
GI50 (JIMT1): > 10 µM | GI50 (colon cancer cell lines): 0.7 µM | GI50 (1587MG): 2.4 µM | GI50 (SKNAS): 2.15 µM | GI50 (HELA): 2.36 µM

COc1ccc([C@@H](O)c2cc(-c3ncnc4cc(N5CCOCC5)ccc34)c(F)cc2Cl)nn1 [Compound 1, (S)-[2-chloro-4-fluoro-5-(7-morpholin-4-yl-quinazolin-4-yl)-phenyl]-(6-methoxy-pyridazin-3-yl)-methanol]
inhibition of viability, combination with etoposide (FaDu): enhanced inhibition of viability | combination effect with cisplatin on viability (NCI-H460): No significant combination effect | inhibition of viability, combination with etoposide (NCI-H460): enhanced inhibition of viability | combination effect with Etoposide on viability (MO59J (DNA-PK deficient)): no such combination effect | efficacy by schedule ([1]; Compound 1 daily throughout the study vs separated from SoC by 7 h or days): better efficacy | body weight change ([1]; SoC combined with Compound 1): additional body weight loss | mean tumor volume ([1]; day 21, Compound 1 50 mg/kg daily + etoposide 4 mg/kg + cisplatin 3 mg/kg, n=10): 50 mm^3 | decrease of mean tumor volume compared to starting volume ([1]; day 21, Compound 1 50 mg/kg daily + etoposide + cisplatin): about 67% | animals showing complete response ([1]; day 28, combination arm): 4/10 | animals with regression ([1]; day 28, combination arm): 1/10 | animals with stable disease ([1]; day 28, combination arm): 3/10 | animals progression free ([1]; day 28, combination arm (Compound 1 + SoC)): 9/10 | antitumor activity ([1]; in combination with Etoposide and Cisplatin): significantly enhanced antitumor activity | inhibition of IR-induced DNA-PK phosphorylation (Ser2056) (DNA-PK (p-Ser2056) [2]; WM164, MSD assay, IR 10 Gy): Dose-dependent inhibition | DNA-PK autophosphorylation in tumor tissue (DNA-PK (p-Ser2056) [2]; WM164, 25 mg/kg 10 minutes prior to 10 Gy IR): inhibition of DNA-PK autophosphorylation | inhibition of IR-induced DNA-PK phosphorylation (Ser2056) (DNA-PK (p-Ser2056) [3]): Dose-dependent inhibition
